Reference: patent US8507408B2 (Dow Global Technologies LLC, priority 2010, dated 2013)
In brackets after ≈: the same amount, converted by molar mass. Where two headings read alike, the source gives them in different places.

What was measured:
An + Pf = assay: Fungal efficacy on dry paint film (Modified ASTM 5590); type: cell-based, Aspergillus niger, Penicillium funiculosum; conditions: for MIC: total actives in paint, read-out: Total conc (minimum inhibitory concentration chosen for SI)
Protocol: (§1) A single biocide or blend of biocides was post added into white acrylic latex paint free of biocides to give a maximum total active ingredient/s concentration tested. This paint was then diluted with a biocide free acrylic latex paint to give targeted concentrations for the testing. Depending on the type of biocide blends tested, the total biocides concentrations varies from 400 to 3300 ppm. After biocides addition or dilution, each sample was hand mixed for at least a minute until uniformity was achieved. Each of the paint samples as well as a control sample (containing no biocide) were used to prepare films on black plastic-vinyl chloride/acetate copolymer panels (Leneta Company, Mahwah, N.J.) using a 0.0762 mm (3 mil) bird bar applicator. The panels were thoroughly dried for at least 2 days avoiding direct exposure to sunlight. Square discs (0.5 inch^2; 1.27 cm^2) were cut out from each panel and were used as the substrate for fungal and algal efficacy tests. This sample size allowed for an agar border when the sample disc was placed into the well of the test plate. Each sample was tested in duplicate.
(§2) The appropriate media (BOLD'S 3N for Chlorophytes, BG-11 for Cyanobacteria, and PDA for fungi) were used to support microbial growth. The test plates were maintained at room temp (25° C.-26° C.), in a cycled light-dark environment, for four weeks for algae. Plates for fungal challenge tests were maintained at 30° C. for four weeks. At the end of the incubation period the samples were scored for percent area covered by visible microbial growth.
(§3) ASTM 5590 is a standard accelerated test method for determining resistance of various coatings (including paints) to fungal defacement. To accommodate for high-throughput screening, this method was scaled down from petri plates to 6-well plates. To set up the test, an agar plug was placed at the bottom of each well of the sterile 6-well plate. A single coupon was placed with a pair of sterile forceps at the center of the agar plug (on top) with the painted surface facing upwards. Fungal inoculums were prepared by mixing equal concentrations (approximately 1×10^6 cfu/ml) and equal volumes (depending on number of samples to be tested) of like growing organisms. For this synergy study, three pools of mixed fungi were prepared as the test inoculum. Cladosporium herbarum was mixed with Trichoderma viride, Aspergillus niger was mixed with Penicillium funiculosum and Alternaria alternata was mixed with Aureobasidium pullulans. Each well was inoculated with 400 microliter of organism mixture (approximately 1×10^6 cfu/ml) making sure that the whole surface (paint film as well as the agar surrounding it) was evenly covered. The plates were incubated at 30° C. in presence of moisture, for a period of four weeks. The total percent area covered was evaluated and recorded at the end of each week and recorded in increments of 5%.
(§4) The SI is calculated based on F. C. Kull et.
(§5) NE=no end point at the concentration tested that will meet the percent inhibition criteria set in each SI calculation.

Cs + Ck + Nc = assay: Algal efficacy on dry paint film (Modified ASTM 5589); type: cell-based, Chlorella sp., Chlorella kessleri, and Nostoc commune; conditions: for MIC: Nostoc commune, total actives in paint, read-out: Total conc (minimum inhibitory concentration chosen for SI)
Protocol: as §1, §2
(§6) ASTM 5589 is a standard accelerated test method for determining resistance of various coatings (including paints) to algal defacement. To accommodate for high-throughput screening, this method was scaled down from petri plates to 6-well plates. A single coupon was placed with a pair of sterile forceps at the center of the agar plug (on top) with the painted surface facing upwards. Algal inoculums were prepared by mixing equal concentrations (approximately 1×10^6 cfu/ml) and equal volumes (depending on number of samples to be inoculated) of like growing organisms.
(§7) In this synergy study, three pool of mixed algae were prepared as the test inoculum, Gloeocapsa sp. and Oscillatoria sp. a mix of cyanobacteria grown on BG-11 media; Chlorella sp., Chlorella kessleri, and Nostoc commune are unicellular chlorphytes that were mixed and grown on Bold media; Trentepohlia aurea, Tretepohlia odorata, and Calotrix parientina are filamentous algae that were mixed and grown on Bold media.
(§8) Each well that contained a tested coupon was inoculated with 400 μl of organism mixture (approximately 1×10^6 cfu/ml) making sure that the whole surface (paint film as well as the agar surrounding it) was evenly covered. The plates were incubated at room temp (25° C.-26° C.) with cyclic exposure to light (OTT-Lite model #OTL4012P, 40 Watt, 26 KLumen) and dark phases, for a period of four weeks. The total area covered was evaluated at the end of each week according to percent area covered in 5% increments.
as §4, §5

Gs + Os = assay: as above; type: cell-based, Gloeocapsa sp. and Oscillatoria sp.; conditions: for MIC: total actives in paint, read-out: Total conc (minimum inhibitory concentration chosen for SI)
Protocol: as §1, §2, §6, §7, §8, §4, §5

ApCh = assay: Fungal efficacy on dry paint film (Modified ASTM 5590); type: cell-based, Aureobasidium pullulans, Cladosporium herbarum; conditions: for % Inhibition: at the total conc; for MIC: total actives in paint, read-out: Total conc (minimum inhibitory concentration chosen for SI)
Protocol: as §1, §2
as §3, with “Each well was inoculated with 400 microliter of organism mixture (approximately 1×10^6 cfu/ml) making sure that the whole surface (paint film as well as the agar surrounding it) was evenly covered. The plates were incubated at 30° C. in presence of moisture, for a period of four weeks.” left out
The SI is calculated based on F. C. […]

AaTv = assay: as above; type: cell-based, Alternaria alternata, Trichoderma viride; conditions: for % Inhibition: at the total conc; for MIC: total actives in paint, read-out: Total conc (minimum inhibitory concentration chosen for SI)
Cp + To + Ta = assay: Algal efficacy on dry paint film (Modified ASTM 5589); type: cell-based; conditions: for Total conc (minimum inhibitory concentration chosen for SI): total actives in paint
Protocol: as §1, §2, §6, §7, §8, §4, §5

[1] = tested on: blue-green algae (Anabaena flos-aquae); conditions: 7 day; cited from earlier work
[2] = tested on: marine algae (Skeletonema costatum); conditions: cited from earlier work
TV + Ch = assay: Fungal efficacy on dry paint film (Modified ASTM 5590); type: cell-based, Trichoderma viride, Cladosporium herbarum; conditions: four weeks
Protocol: as §1, §2, §3, §4

[3] = tested on: diatom (Navicula pelliculosa); conditions: 7 day; cited from earlier work
[4] = tested on: green algae (Selenastrum capricornutum); conditions: cited from earlier work; for EbC50: median effective concentration for biomass
Aa + Ap = assay: Fungal efficacy on dry paint film (Modified ASTM 5590); type: cell-based, Alternaria alternata, Aureobasidium pullulans; conditions: four weeks
Protocol: as §1, §2, §3, §4

[5] = cited from earlier work
[6] = Zinc Glyphosate with DCOIT study, at the total conc
[7] = Zinc Glyphosate with DCOIT study
[8] = Zinc Glyphosate with OIT study, at the total conc
[9] = Zinc Glyphosate with OIT study, NE=no end point at the concentration tested

For CCCCCCCCn1sc(Cl)c(Cl)c1=O [DCOIT, 4,5-dichloro-2-n-octyl-4-isothiazolin-3-one], the “% Inhibition” value (An + Pf; [6]) was 80%, the MIC (An + Pf; [7]) was 1150 µg/mL and the “% Inhibition” value (An + Pf; [8]) was 50%. The MIC (An + Pf; Zinc Glyphosate with OIT study) was 450 µg/mL, the MIC (Cs + Ck + Nc; [7]) was 575 µg/mL and the MIC (Cs + Ck + Nc; Zinc Glyphosate with OIT study) was 900 µg/mL. For the same compound, the “% Inhibition” value (Cs + Ck + Nc; [6]) was 20%, the “% Inhibition” value (Cs + Ck + Nc; [8]) was 100% and the “% Inhibition” value (Gs + Os; [6]) was 60%. For the same compound, the MIC (Gs + Os; [7]) was 826 µg/mL, the “% Inhibition” value (Gs + Os; [8]) was 80% and the MIC (Gs + Os; [9]) was 900 µg/mL. For the same compound, the “% Inhibition” value (ApCh; [7]) was 40%, the MIC (ApCh; [7]) was 575 µg/mL and the “% Inhibition” value (ApCh; Zinc Glyphosate with OIT study) was 40%. The MIC (ApCh; [9]) was 900 µg/mL, the “% Inhibition” value (AaTv; [7]) was 40% and the MIC (AaTv; [7]) was 288 µg/mL (≈ 1020 µM). For the same compound, the “% Inhibition” value (AaTv; Zinc Glyphosate with OIT study) was 100%, the MIC (AaTv; [9]) was 450 µg/mL (≈ 1590 µM) and the “% Inhibition” value (Cp + To + Ta; [6]) was 80%. For the same compound, the “Total conc (minimum inhibitory concentration chosen for SI)” value (Cp + To + Ta; [7]) was 575 ppm, the “% Inhibition” value (Cp + To + Ta; [8]) was 80% and the “Total conc (minimum inhibitory concentration chosen for SI)” value (Cp + To + Ta; Zinc Glyphosate with OIT study) was 1350 ppm.

For O=C(O)CNCP(=O)(O)O [Glyphosate, N-(phosphonomethyl)glycine], the “% Inhibition” value (An + Pf; 750 ppm in paint, four weeks) was 0%, the “% Inhibition” value (An + Pf; 1500 ppm in paint, four weeks) was 5% and the “% Inhibition” value (An + Pf; 2500 ppm in paint, four weeks) was 10%. The EC50 [1] was 15 µg/mL (≈ 88.7 µM), the EC50 ([2]; 96 hr) was 1.3 µg/mL (≈ 7.69 µM) and the EC50 ([2]; 7 day) was 0.64 µg/mL (≈ 3.79 µM). The “% Inhibition” value (Cs + Ck + Nc; 750 ppm in paint, four weeks) was 37.5%, the “% Inhibition” value (Cs + Ck + Nc; 1500 ppm in paint, four weeks) was 60% and the “% Inhibition” value (Cs + Ck + Nc; 2500 ppm in paint, four weeks) was 80%. The “% Inhibition” value (TV + Ch; 750 ppm in paint) was 2.5%, the “% Inhibition” value (TV + Ch; 1500 ppm in paint) was 50% and the “% Inhibition” value (TV + Ch; 2500 ppm in paint) was 72.5%. For the same compound, the EC50 [3] was 42 µg/mL (≈ 248 µM), the “% Inhibition” value (Gs + Os; 750 ppm in paint, four weeks) was 15% and the “% Inhibition” value (Gs + Os; 1500 ppm in paint, four weeks) was 72.5%. For the same compound, the “% Inhibition” value (Gs + Os; 2500 ppm in paint, four weeks) was 90%, the EbC50 ([4]; 72 hr) was 485 mg/L and the ErC50 ([4]; 72 hr, median effective concentration for growth rate) was 460 mg/L. The EbC50 ([4]; 7 day) was 13.8 mg/L, the “% Inhibition” value (Aa + Ap; 750 ppm in paint) was 7.5% and the “% Inhibition” value (Aa + Ap; 1500 ppm in paint) was 20%. For the same compound, the “% Inhibition” value (Aa + Ap; 2500 ppm in paint) was 67.5%, the solubility in water [5] was “relatively high” and the “% Inhibition” value (Cp + To + Ta; 750 ppm in paint, four weeks) was 0%. The “% Inhibition” value (Cp + To + Ta; 1500 ppm in paint, four weeks) was 10% and the “% Inhibition” value (Cp + To + Ta; 2500 ppm in paint, four weeks) was 7.5%.

For Zinc Glyphosate, the “% Inhibition” value (An + Pf; 750 ppm in paint, four weeks) was 20%, the “% Inhibition” value (An + Pf; 1500 ppm in paint, four weeks) was 27.5% and the “% Inhibition” value (An + Pf; 2500 ppm in paint, four weeks) was 30%. For the same compound, the “% Inhibition” value (TV + Ch; 750 ppm in paint) was 50%, the “% Inhibition” value (TV + Ch; 1500 ppm in paint) was 75% and the “% Inhibition” value (TV + Ch; 2500 ppm in paint) was 90%. For the same compound, the “% Inhibition” value (Gs + Os; 750 ppm in paint, four weeks) was 15%, the “% Inhibition” value (Gs + Os; 1500 ppm in paint, four weeks) was 72.5% and the “% Inhibition” value (Gs + Os; 2500 ppm in paint, four weeks) was 90%. The “% Inhibition” value (Aa + Ap; 1500 ppm in paint) was 47.5% and the “% Inhibition” value (Aa + Ap; 2500 ppm in paint) was 70%.
